The values below come from patent publication US9278968B2, “Imidazopyridine compounds” (ASTELLAS PHARMA INC., priority 2012, dated 2016).

For test [1], the system named is hind limb blood flow in rats anesthetized with pentobarbital. Briefly: Blood flow increasing action in vivo (hind limb blood flow, anesthetized rats). Particulars: oral, 2 hours after administration, effective when blood flow rate 130% or more of solvent group. Set-up: species or system Wistar male rats. Here is the method: The hind limb blood flow increasing action in rats anesthetized with pentobarbital was confirmed by the following test method.
Wistar male rats, 11- to 14-week (Japan SLC, Inc.) were used. An administration liquid was prepared by adding N,N-dimethyl formamide, Polyethylene Glycol 400, TWEEN 80, a 0.5% methyl cellulose aqueous solution, a 0.5 M aqueous sodium hydrogen carbonate solution, and 0.1 M hydrochloric acid to the test compound and dissolving the Example compound in an appropriate manner depending on the compound. The prepared administration liquid was orally administered, and 2 hours later, the hind limb blood flow increasing action was evaluated under anesthesia with intraperitoneally administration of 60 mg/kg of pentobarbital The hind limb blood flow was measured using a laser blood flow imaging device (PIM II Integral). By taking the average blood flow rate of a group with the administration of a solvent as 100%, the compound was evaluated to be effective when the blood flow rate was 130% or more by the administration of the compound.

Test [2] concerns the target human purified sGC (heterodimer of sGCα1 and sGCβ1) (Homo sapiens (Human), UniProt Q02108+Q02153). As to the kind of experiment: sGC activation test (cGMP produced, HTRF). Particulars: maximum activity of Preparation Example 200 compound (maximum 100 μM) taken as 100%; with SNP; read-out: EC50 (concentration giving 50% of maximum activity). Type of test: biochemical. Here is the method: The activity of sGC was evaluated by measuring the amount of cGMP produced by human purified sGC.
Using an sGCα 1 gene (NCBI accession No. BC028384.2) and an sGCβ1 gene (NCBI accession No. BC047620.1), an N-terminal FLAG tag-fused sGCα1 and an sGCβ1 expression baculovirus were prepared. These viruses were transfected into insect cells Sf9 (Cat. No. 11496-015, Gibco) to express a protein. From the cell lysates of the insect cells, heterodimers of the N-terminal FLAG tag-fused sGCα1 and sGCβ1 were purified with an M2 Affinity Gel (Sigma-Aldrich, Inc.) to obtain a human sGC.
An Example compound was dissolved in DMSO and diluted 20-fold with ultrapure water. 2 μL of the diluted Example compound solution (maximum concentration of 100 μM), 2 μL of a substrate solution [0.5 μM triethanolamine buffer solution, 0.03 μM dithiothreitol, 0.01 μM GTP, 0.04 μM MgCl2, and 0.03 μM sodium nitroprusside (SNP)], and 6 μL of a human enzyme suspension were added to 384-well plates (manufactured by Greiner Bio-One), and incubated at room temperature for one hour. The measurement of the amount of cGMP was carried out, using an HTRF reagent (Cisbio).
The sGC activation action of the Example compound was calculated as an Example compound concentration which gives 50% of a maximum activity (EC50), in which the maximum activity by the addition of a compound shown in Preparation Example 200, 8-(cyclohexylmethoxy)-N-[(1R)-2-hydroxy-1-phenylethyl]-2-methylimidazo[1,2-a]pyridine-3-carboxamide hydrochloride (maximum 100 μM), is taken as 100%. Further, the maximum activity of sGC with the addition of 8-(cyclohexylmethoxy)-N-[(1R)-2-hydroxy-1-phenylethyl]-2-methylimidazo[1,2-a]pyridine-3-carboxamide hydrochloride is 10-fold or more relative to the sGC activation without the addition of the compound, and it is recognized that the compound has a good sGC activating action. […] The test results of some Example compounds that are the compounds of the formula (I) of the present invention are shown below. Further, in Tables, Ex. represents Example number.

Structures are written as SMILES.

human purified sGC (heterodimer of sGCα1 and sGCβ1), sequence (Q02108 whole entry, the tested form may be a part): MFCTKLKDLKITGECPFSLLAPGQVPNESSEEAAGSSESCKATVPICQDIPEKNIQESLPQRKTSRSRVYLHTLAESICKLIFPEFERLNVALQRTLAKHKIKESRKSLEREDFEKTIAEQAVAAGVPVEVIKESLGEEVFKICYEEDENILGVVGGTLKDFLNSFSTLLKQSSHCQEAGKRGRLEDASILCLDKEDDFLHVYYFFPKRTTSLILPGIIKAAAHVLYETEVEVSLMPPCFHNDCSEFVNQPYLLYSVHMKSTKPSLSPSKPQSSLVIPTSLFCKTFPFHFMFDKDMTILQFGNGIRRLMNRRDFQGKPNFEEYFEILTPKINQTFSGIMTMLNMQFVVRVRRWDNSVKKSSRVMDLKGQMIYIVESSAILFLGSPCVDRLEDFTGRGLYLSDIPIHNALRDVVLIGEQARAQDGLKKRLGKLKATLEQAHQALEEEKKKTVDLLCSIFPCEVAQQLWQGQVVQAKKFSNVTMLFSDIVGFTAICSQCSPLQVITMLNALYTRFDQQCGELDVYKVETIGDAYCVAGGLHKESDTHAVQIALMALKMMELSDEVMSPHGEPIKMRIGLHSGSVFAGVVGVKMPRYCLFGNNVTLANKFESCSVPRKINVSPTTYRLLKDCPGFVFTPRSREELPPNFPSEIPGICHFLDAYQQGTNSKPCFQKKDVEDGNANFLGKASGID
human purified sGC (heterodimer of sGCα1 and sGCβ1), sequence (Q02153 whole entry, the tested form may be a part): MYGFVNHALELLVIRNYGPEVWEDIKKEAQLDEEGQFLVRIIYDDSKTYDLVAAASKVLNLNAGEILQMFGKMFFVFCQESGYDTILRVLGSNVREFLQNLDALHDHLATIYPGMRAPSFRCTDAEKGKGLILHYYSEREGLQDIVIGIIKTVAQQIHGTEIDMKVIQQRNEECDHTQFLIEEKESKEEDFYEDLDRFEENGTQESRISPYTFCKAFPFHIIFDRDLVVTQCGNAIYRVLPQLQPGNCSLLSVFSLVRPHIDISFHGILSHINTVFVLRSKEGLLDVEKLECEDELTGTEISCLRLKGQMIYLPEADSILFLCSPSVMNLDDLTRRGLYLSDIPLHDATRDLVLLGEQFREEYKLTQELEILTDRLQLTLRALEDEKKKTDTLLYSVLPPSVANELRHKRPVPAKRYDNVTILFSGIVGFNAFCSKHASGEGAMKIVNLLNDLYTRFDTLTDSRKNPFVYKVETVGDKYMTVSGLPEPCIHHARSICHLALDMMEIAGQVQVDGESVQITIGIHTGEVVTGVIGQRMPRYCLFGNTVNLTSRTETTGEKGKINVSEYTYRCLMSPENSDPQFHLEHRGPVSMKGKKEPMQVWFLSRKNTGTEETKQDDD

`Cc1nc2c(OCc3c(F)cccc3F)cccn2c1C(=O)NC(C)(CO)c1nnn(C(F)F)n1` (centres unmarked) [Example 6, 8-[(2,6-difluorobenzyl)oxy]-N-{2-[2-(difluoromethyl)-2H-tetrazol-5-yl]-1-hydroxypropan-2-yl}-2-methylimidazo[1,2-a]pyridine-3-carboxamide]: the “hind limb blood flow increasing action” value in test [1] (0.1 mg/kg) was “exhibited a blood flow increasing action”. Further, the EC50 in test [2] came out at 1.7 µM.

On to `Cc1nc2c(OCc3c(F)cccc3F)cccn2c1C(=O)N[C@@](C)(CO)c1ccccc1F` [Example 18], for which, in test [1] (1 mg/kg), the “hind limb blood flow increasing action” value is reported as “exhibited a blood flow increasing action”. For the same compound, the EC50 in test [2] was 1.6 µM.

In the case of `Cc1nnc(C(C)(CO)NC(=O)c2c(C)nc3c(OCc4c(F)cccc4F)cccn23)o1` (centres unmarked) [Example 35], the “hind limb blood flow increasing action” value in test [1] (0.3 mg/kg) is on record as “exhibited a blood flow increasing action”. In addition, the EC50 in test [2] turned out to be 6.4 µM.

Regarding `Cc1cnc([C@](C)(CO)NC(=O)c2c(C)nc3c(OCc4c(F)cccc4F)cccn23)s1` [Example 77], the “hind limb blood flow increasing action” value in test [1] (0.3 mg/kg) is “exhibited a blood flow increasing action”. Besides, the EC50 in test [2] was found to be 1.3 µM.

For `Cc1nc2c(OCc3c(F)cccc3F)cccn2c1C(=O)N[C@@](C)(CO)c1ncc(CO)s1` [Example 19], the “hind limb blood flow increasing action” value in test [1] (1 mg/kg) is recorded as “exhibited a blood flow increasing action”. In addition, the EC50 in test [2] is 3.6 µM.

With `Cc1cnc([C@@]2(NC(=O)c3c(C)nc4c(OCc5c(F)cccc5F)cccn34)C[C@@H](O)[C@@H](O)C2)s1` [Example 69], the “hind limb blood flow increasing action” value in test [1] (3 mg/kg) is reported as “exhibited a blood flow increasing action”. Also, in test [2], the EC50 amounted to 4.6 µM.

For the compound `CCc1nnc(C(C)(CO)NC(=O)c2c(C)nc3c(OCc4c(F)cccc4F)cccn23)o1` (centres unmarked) [Example 1, 8-[(2,6-difluorobenzyl)oxy]-N-[2-(5-ethyl-1,3,4-oxadiazol-2-yl)-1-hydroxypropan-2-yl]-2-methylimidazo[1,2-a]pyridine-3-carboxamide], the “hind limb blood flow increasing action” value in test [1] (1 mg/kg) is reported as “exhibited a blood flow increasing action”. In addition, the EC50 in test [2] amounted to 5.5 µM.

In the case of `Cc1nc2c(OCc3c(F)cccc3F)cccn2c1C(=O)NCc1ccccc1[C@@H](O)[C@@H](C)O` [Example 31], the “hind limb blood flow increasing action” value in test [1] (3 mg/kg) is reported as “exhibited a blood flow increasing action”. Besides, in test [2], the EC50 is 4.9 µM.

Turning to `Cc1noc(C(C)(CO)NC(=O)c2c(C)nc3c(OCc4c(F)cccc4F)cccn23)n1` (centres unmarked) [Example 39], in test [1] (1 mg/kg), the “hind limb blood flow increasing action” value is “exhibited a blood flow increasing action”. In test [2], the EC50 is 4.6 µM.

With `Cc1cnc(C(CO)(CO)NC(=O)c2c(C)nc3c(OCc4c(F)cccc4F)cccn23)s1` [Example 72], the “hind limb blood flow increasing action” value in test [1] (1 mg/kg) is on record as “exhibited a blood flow increasing action”. Besides, the EC50 in test [2] worked out at 2.7 µM.

For `Cc1nc(C(C)(CO)NC(=O)c2c(C)nc3c(OCc4c(F)cccc4F)cccn23)no1` (centres unmarked) [Example 41], the “hind limb blood flow increasing action” value in test [1] (0.3 mg/kg) is recorded as “exhibited a blood flow increasing action”. Besides, in test [2], the EC50 came to 5.3 µM.

For the compound `Cc1nnc(C(C)(CO)NC(=O)c2c(C)nc3c(OCc4c(F)cccc4F)cccn23)s1` (centres unmarked) [Example 37], the “hind limb blood flow increasing action” value in test [1] (1 mg/kg) is reported as “exhibited a blood flow increasing action”. The EC50 in test [2] amounted to 7.1 µM.

In the case of `Cc1nc2c(OCc3c(F)cccc3F)cccn2c1C(=O)NC(C)(CO)c1nnn(C)n1` (centres unmarked) [Example 7a, 8-[(2,6-difluorobenzyl)oxy]-N-[1-hydroxy-2-(2-methyl-2H-tetrazol-5-yl)propan-2-yl]-2-methylimidazo[1,2-a]pyridine-3-carboxamide], the “hind limb blood flow increasing action” value in test [1] (3 mg/kg) is given as “exhibited a blood flow increasing action”. Besides, the EC50 in test [2] stood at 9.6 µM.

Consider `Cc1nc2c(OCc3c(F)cccc3F)cccn2c1C(=O)NC(C)(CO)c1ccn(C)n1` (centres unmarked) [Example 36], for which the “hind limb blood flow increasing action” value in test [1] (1 mg/kg) was “exhibited a blood flow increasing action”. Also, the EC50 in test [2] was found to be 11 µM.

Turning to `Cc1nc2c(OCc3c(F)cccc3F)cccn2c1C(=O)NC(C)(CO)c1nnn(C2CC2)n1` (centres unmarked) [Example 76], the “hind limb blood flow increasing action” value in test [1] (3 mg/kg) is “exhibited a blood flow increasing action”. Also, in test [2], the EC50 was found to be 5.8 µM.

Consider `Cc1nc2c(OCc3c(F)cccc3F)cccn2c1C(=O)NC(CO)(CO)c1ccc(Cl)cn1` [Example 70], for which the “hind limb blood flow increasing action” value in test [1] (1 mg/kg) was “exhibited a blood flow increasing action”. Moreover, in test [2], the EC50 is 3.8 µM.

For the compound `Cc1nc2c(OCC3CCCCC3)cccn2c1C(=O)N[C@@](C)(CO)c1cccc(-c2nn[nH]n2)c1` [Example 111], the EC50 in test [2] turned out to be 0.56 µM.

For `Cc1nc2c(OCc3c(F)cccc3F)cccn2c1C(=O)NC(C)(CO)c1nnn(CCO)n1` (centres unmarked) [Example 75], in test [2], the EC50 was 9.1 µM.

`Cc1nc2c(OCc3c(F)cccc3F)cccn2c1C(=O)N[C@@](C)(CO)c1cccc(C(N)=O)c1` [Example 12]: in test [2], the EC50 came to 0.78 µM.

Take `Cc1nc2c(OCc3c(F)cccc3F)cccn2c1C(=O)NC(CO)(CO)c1ccn(C)n1` [Example 95]: in test [2], the EC50 is 18 µM.

`Cc1nc2c(OCc3c(F)cccc3F)cccn2c1C(=O)NCc1ccccc1C(O)CO` (centres unmarked) [Example 5, 8-[(2,6-difluorobenzyl)oxy]-N-[2-(1,2-dihydroxyethyl)benzyl]-2-methylimidazo[1,2-a]pyridine-3-carboxamide]: the EC50 in test [2] was determined as 6.4 µM.

On to `Cc1ncc(C(CO)(CO)NC(=O)c2c(C)nc3c(OCc4c(F)cccc4F)cccn23)s1` [Example 78], for which, in test [2], the EC50 amounted to 5.1 µM.

As for `Cc1nc2c(OCc3c(F)cccc3F)cccn2c1C(=O)N[C@@](C)(CO)c1nc(CO)cs1` [Example 21], the EC50 in test [2] amounted to 4 µM.

Consider `Cc1nc2c(OCC3CCCCC3)cccn2c1C(=O)N[C@@](C)(CO)c1cccc(C(N)=O)c1` [Example 13], for which the EC50 in test [2] is 0.84 µM.

As to `Cc1nc2c(OCc3c(F)cccc3F)cccn2c1C(=O)NC(C)(CO)c1nnn(CC2CC2)n1` (centres unmarked) [Example 103], the EC50 in test [2] was found to be 6.1 µM.

With `CCc1nnc(C(CO)(CO)NC(=O)c2c(C)nc3c(OCC4CCCCC4)cccn23)o1` [Example 99], the EC50 in test [2] worked out at 17 µM.

Consider `Cc1nnc(C(C)(CO)NC(=O)c2c(C)nc3c(OCC4CCCCC4)cccn23)o1` (centres unmarked) [Example 84], for which the EC50 in test [2] is 7.1 µM.

As for `Cc1nc2c(OCC3CCCCC3)cccn2c1C(=O)NC(C)(CO)c1nnn(CCO)n1` (centres unmarked) [Example 104], the EC50 in test [2] is 7.5 µM.

Consider `Cc1nc2c(OCc3c(F)cccc3F)cccn2c1C(=O)N[C@@H](CO)c1nnn(C)n1` [Example 26], for which the EC50 in test [2] stood at 24 µM.

In the case of `Cc1nc2c(OCc3ccccc3F)cccn2c1C(=O)NC(C)(CO)c1ccc(CO)cc1` (centres unmarked) [Example 51], the EC50 in test [2] is 12 µM.

For the compound `Cc1nc2c(OCc3c(F)cccc3F)cccn2c1C(=O)NC(CO)(CO)c1ccc(F)cn1` [Example 57], the EC50 in test [2] turned out to be 3.7 µM.

As to `Cc1nc2c(OCC3CCCCC3)cccn2c1C(=O)N[C@@](C)(CO)c1cccc(C(=O)O)c1` [Example 3, 3-[(2R)-2-({ [8-(cyclohexylmethoxy)-2-methylimidazo[1,2-a]pyridin-3-yl]carbonyl}amino)-1-hydroxypropan-2-yl]benzoic acid], in test [2], the EC50 turned out to be 0.72 µM.

On to `Cc1nnc([C@H](CO)NC(=O)c2c(C)nc3c(OCc4c(F)cccc4F)cccn23)o1` [Example 42], for which the EC50 in test [2] was 33 µM.

For `CCn1cc(C(CO)(CO)NC(=O)c2c(C)nc3c(OCc4c(F)cccc4F)cccn23)cn1` [Example 101], the EC50 in test [2] came to 26 µM.

For `Cc1nc2c(OCc3c(F)cccc3F)cccn2c1C(=O)NCc1ccccc1[C@H](O)[C@@H](C)O` [Example 33], in test [2], the EC50 came to 7.4 µM.

As to `Cc1nc2c(OCc3c(F)cccc3F)cccn2c1C(=O)NC(C)(CO)c1nnc(C2CC2)o1` (centres unmarked) [Example 87], the EC50 in test [2] is 5.9 µM.

Consider `Cc1nc2c(OCC3CCCCC3)cccn2c1C(=O)NC(C)(CO)c1nnn(C)n1` (centres unmarked) [Example 73a], for which the EC50 in test [2] worked out at 6.4 µM.
